From patent US20110144028A1, “MODULATING CELLULAR ELECTROPHYSIOLOGY” (priority 2009, published 2011)

Legend:
[1] = system: cardiac fibroblasts transfected with AdV-Kv1.3-GFP; experiment: Cell viability and apoptosis with Hoechst nuclei stain in Kv1.3 transfected cardiac fibroblasts; type: cell-based, rat; conditions: for rescue of cells from Kv1.3 induced apoptosis: Kv1.3 transfected fibroblasts, n=3 for each titer, three days in culture
Description: (§1) Cells: Primary neonatal cardiac cells were obtained from ventricles of 2-3-day-old rat pups. The ventricles were fine minced, dissociated in Ca^2+-free Hank's balanced salt solution (HBSS) supplemented with 0.1%, trypsin and 0.006% pancreatin, and dispersed by triturating.
(§2) Separation and culture of cardiac myocytes and fibroblasts: The solution of dispersed cells was supplemented with 10% neonatal calf serum to stop enzymatic activity, centrifuged, resuspended in culture medium, pre-plated in large culture flasks, and incubated for two hours to isolate the fibroblast enriched fraction. Fibroblasts were further purified by media exchange within 1 hour after each passage. The myocytes remaining in suspension were collected and plated at 1.5 10^5 cells/cm^2 and grown for five to seven days before experimentation.
(§3) Transfection: Subconfluent myocyte and fibroblast cultures were transfected with AdV-Kv1.3-GFP or AdV-GFP at 10^6-10^8 PFU/ml. After transfection the cells were cultured in 0-5% serum media with 0, 1, 10 or 100 nM Charybdotoxin (CTx), which is a specific K^+ channel blocker. After three days in culture, the cells were visually monitored and assayed.
Cell Viability and apoptosis: Cells were assayed for viability and apoptosis with Hoechst nuclei stain.

[2] = system: cardiac fibroblasts transfected with AdV-Kv1.3-GFP; experiment: Phase contrast microscopy of cellular morphology of Kv1.3 expressing cardiac fibroblasts; type: cell-based, rat; conditions: cells expressing Kv1.3 after 10^7 PFU/ml AdV-Kv1.3-GFP; phase contrast microscopy (FIG. 8B)
Description: as §1, §2, §3

Charybdotoxin
rescue of cells from Kv1.3 induced apoptosis ([1]; Charybdotoxin alone (FIG. 7A)): partially rescued the cells
rescue of cells from Kv1.3 induced apoptosis ([1]; cTx and 5% serum (FIG. 7B)): partially rescued the cells
cardiac fibroblast cell viability ([1]; cells expressing Kv1.3, addition of Charybdotoxin (FIG. 8)): rescued
cellular morphology of the fibroblasts [2]: maintained normal cellular morphology
